How the values were obtained:
[1] = tested on: dihydrotestosterone and testosterone; experiment: Mouse Experiment #2: radioimmunoassay for androgen suppression by DES; type: in vivo, athymic nude mice; conditions: DES i.p., 1 hour (used as baseline)
Method: Six athymic nude mice (Harlan) were used for this experiment. As above, mouse 1 received a 100 μl injection of a 7.5% DES solution in DMSO, for a total dose of […]. Mice 2, 3, 4, 5, and 6 received three applications of 0%, 0.5%, 1%, 2%, and 3% DES cream at 24 h intervals. 24 h following the final cream application and 1 h post-injection, blood was taken from each mouse by cardiac puncture. Each cardiac puncture sample was combined with 0.1 ml sodium heparin (50 mg/ml; Sigma, cat #). Blood plasma was isolated from each sample by centrifugation at 4,000 rpm for 15 minutes. This yielded approximately 0.2 to 0.4 ml of plasma from each sample.
A radioimmunoassay that detects both dihydrotestosterone and testosterone was used to assess androgen suppression by DES.

hot flashes = conditions: DES 1 mg per day, cited from earlier work
[2] = patients receiving 5 mg of DES per day, oral; cited from earlier work
[3] = Mouse Experiment #1: DES in mouse plasma by TSQ-ESI-MS after i.p. injection or topical DES cream; type: in vivo; conditions: ip, 0.75 mg, DES i.p. 0.75 mg, read-out: DES Amount in plasma
Method: 375 mg of diethylstilbestrol (DES; Sigma, cat #D4628) was then added to 2.5 ml of the lecithin solution and combined with 10 ml of the 20% poloxamer solution. This combination was stirred overnight at room temperature. The result was a viscous 3% (g/ml) DES cream, of which 0.25 ml was applied to each mouse resulting in a topical dose of approximately 7.5 mg.
100 μl samples of commercial BALB/C mouse plasma containing the following concentrations of DES were used to produce a standard curve: 0, 0.01, 0.02, 0.05, 0.08, 0.1, 0.2, 0.5, 0.8, 1.0 (nanograms of DES per milliliter of mouse plasma). Each plasma standard was spiked with 10 μl of d8-DES (Isotech, cat #614289) used as an internal standard. Prior to the next step, samples taken from live mice were exposed to 5 μl of β-glucuronidase (Sigma, cat #G7017) and incubated at 37° C. for 70 minutes at 100 rpm. The enzymatic reaction was necessary in order to separate the DES molecule from any conjugated glucoronic acid that may be present. Following this incubation, 10 μl of 6M perchloric acid and 50 μl of acetonitrile were added. Each sample was then mixed for 2 minutes, following by centrifugation at 17,000×g for 5 minutes at 5° C. The supernatant was combined with 40 μl of 0.75M potassium carbonate and mixed for 30 seconds. Precipitated potassium perchlorate was removed by centrifugation at 17,000×g for 5 minutes at 5° C. […]

[4] = oral, versus conventional ADT, non-metastatic prostate cancer; cited from earlier work
[5] = Mouse Experiment #2: DES in mouse plasma by TSQ-ESI-MS after three cream applications or i.p. injection; type: in vivo, athymic nude mice; conditions: athymic nude, ip, DES i.p. 0.75 mg, β-glucuronidase, read-out: DES Amount in plasma
Method: 100 μl samples of commercial BALB/C mouse plasma containing the following concentrations of DES were used to produce a standard curve: 0, 0.01, 0.02, 0.05, 0.08, 0.1, 0.2, 0.5, 0.8, 1.0 (nanograms of DES per milliliter of mouse plasma). Each plasma standard was spiked with 10 μl of d8-DES (Isotech, cat #614289) used as an internal standard. Prior to the next step, samples taken from live mice were exposed to 5 μl of β-glucuronidase (Sigma, cat #G7017) and incubated at 37° C. for 70 minutes at 100 rpm. The enzymatic reaction was necessary in order to separate the DES molecule from any conjugated glucoronic acid that may be present. Following this incubation, 10 μl of 6M perchloric acid and 50 μl of acetonitrile were added. Each sample was then mixed for 2 minutes, following by centrifugation at 17,000×g for 5 minutes at 5° C. The supernatant was combined with 40 μl of 0.75M potassium carbonate and mixed for 30 seconds. Precipitated potassium perchlorate was removed by centrifugation at 17,000×g for 5 minutes at 5° C. The resulting supernatant was subjected to TSQ-ESI-MS. The chromatography conditions were the following: 25 μl metal loop, 10 μl no waste injection; oven 22° C.; flow rate 0.3 ml/min; solvents: A=water, C=MeOH; column: Hypersil Gold 100×2.1 mm, 5 μm bore (Thermo Scientific, catalog #25005-102130; with guard column). […]

coagulation factors = conditions: in vivo; cited from earlier work
[6] = cited from earlier work
[7] = PEP group, 915 men, median follow-up 27 months

CCC(=C(CC)c1ccc(O)cc1)c1ccc(O)cc1 [DES, 4-[4-(4-hydroxyphenyl)hex-3-en-3-yl]phenol]
[testosterone] [1]: 143 pg/mlI
patients with significant improvement of hot flashes (hot flashes; remaining patients): 14%
patients with resolution of hot flashes (hot flashes): 86%
increase in non-cancer related deaths, mostly cardiovascular [2]: 36%
concentration at 1 h ([3]; no β-glucuronidase): 0.089 ng/mL
concentration at 1 h ([3]; β-glucuronidase sample prep): 1.48 ng/mL
urinary N-telopeptide levels (marker for bone turnover) [4]: significantly lower
concentration at 1 h [5]: 1.93 ng/mL

C[C@]12CC[C@@H]3c4ccc(O)cc4CC[C@H]3[C@@H]1CC[C@@H]2O [transdermal estradiol, estradiol]
F1.2 (coagulation factors): did not affect

polyoestradiol phosphate [PEP]
non-fatal cardiovascular events: heart failure [6, 7]: 4.4%
non-fatal cardiovascular events: ischemic heart disease [6, 7]: 3.7%
cardiovascular or thromboembolic complications ([6]; phase I, intramuscular, 12 patients, median 12.9 months): did not cause any
Antithrombin III activity (coagulation factors): significant decrease
Factor VII (coagulation factors): no change
Fibrinogen (coagulation factors): unchanged
